{"source": "patent US20250357519A1", "about": "“APPLICATIONS OF O2-INSENSITIVE FORMATE DEHYDROGENASE” (UNIVERSITY OF MARYLAND, BALTIMORE, priority 2022, published 2025)", "key": {"[1]": {"target": "T1, Desulfovibrio vulgaris Hildenborough (DvH) FDH2, recombinant Strep-tag II-tagged (FDH2^Rec), large subunit DVU2482 SEQ ID NO: 31, small subunit DVU2481 SEQ ID N (Nitratidesulfovibrio vulgaris, UniProt Q728X0)", "T1 sequence (Q728X0 36-1003)": "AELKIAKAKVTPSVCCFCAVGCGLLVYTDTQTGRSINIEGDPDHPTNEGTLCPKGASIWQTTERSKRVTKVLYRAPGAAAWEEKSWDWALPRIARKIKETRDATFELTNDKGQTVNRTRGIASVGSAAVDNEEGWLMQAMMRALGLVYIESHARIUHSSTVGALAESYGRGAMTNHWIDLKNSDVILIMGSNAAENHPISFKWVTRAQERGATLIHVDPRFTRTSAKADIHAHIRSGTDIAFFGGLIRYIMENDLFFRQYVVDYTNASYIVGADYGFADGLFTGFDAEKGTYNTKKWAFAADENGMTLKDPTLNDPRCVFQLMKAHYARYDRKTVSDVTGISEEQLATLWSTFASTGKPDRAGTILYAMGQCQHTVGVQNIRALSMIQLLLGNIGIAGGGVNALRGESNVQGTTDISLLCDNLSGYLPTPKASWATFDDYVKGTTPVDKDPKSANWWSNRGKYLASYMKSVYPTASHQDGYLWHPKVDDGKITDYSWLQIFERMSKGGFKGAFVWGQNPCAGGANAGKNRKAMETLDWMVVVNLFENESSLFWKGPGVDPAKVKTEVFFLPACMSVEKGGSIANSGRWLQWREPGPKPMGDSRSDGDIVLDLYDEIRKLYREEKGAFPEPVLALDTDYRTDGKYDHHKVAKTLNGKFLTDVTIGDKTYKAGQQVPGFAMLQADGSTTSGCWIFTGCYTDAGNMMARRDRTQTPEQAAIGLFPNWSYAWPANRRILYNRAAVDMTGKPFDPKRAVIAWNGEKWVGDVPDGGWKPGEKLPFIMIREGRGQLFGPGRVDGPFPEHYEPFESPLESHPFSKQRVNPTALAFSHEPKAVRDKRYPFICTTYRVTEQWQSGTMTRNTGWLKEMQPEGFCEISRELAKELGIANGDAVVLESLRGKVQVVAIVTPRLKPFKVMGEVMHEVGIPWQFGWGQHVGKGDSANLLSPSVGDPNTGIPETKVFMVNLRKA", "T1 sequence (Q728X1 1-260 partner)": "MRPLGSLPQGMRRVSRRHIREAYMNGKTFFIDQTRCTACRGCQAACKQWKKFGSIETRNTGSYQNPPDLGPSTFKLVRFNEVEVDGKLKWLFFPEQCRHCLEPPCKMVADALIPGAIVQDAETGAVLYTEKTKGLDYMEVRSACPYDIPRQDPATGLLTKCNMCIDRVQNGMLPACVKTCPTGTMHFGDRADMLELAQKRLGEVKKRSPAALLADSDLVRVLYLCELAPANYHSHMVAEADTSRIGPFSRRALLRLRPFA", "test": "Benzyl viologen (BV) assay of formate oxidation"}, "[2]": {"system": "Desulfovibrio gigas (Dg) W-FDH1, wild-type natively-purified (W-FDH1^WT)", "details": "pH 8.0, 37 °C, 7.5 mM BV, 35 nM enzyme; Mota (2011); cited from earlier work"}, "[3]": {"target": "T2, Desulfovibrio vulgaris Hildenborough (DvH) W-FDH1, recombinant (W-FDH1^REC), large subunit DVU0587 SEQ ID NO: 29, small subunit DVU0588 SEQ ID NO: 30 (Nitratidesulfovibrio vulgaris, UniProt Q72EJ1)", "T2 construct": "mature large subunit lacks Tat signal peptide; literature data of Oliveira et al. reanalysed", "T2 sequence (Q72EJ1 36-1005)": "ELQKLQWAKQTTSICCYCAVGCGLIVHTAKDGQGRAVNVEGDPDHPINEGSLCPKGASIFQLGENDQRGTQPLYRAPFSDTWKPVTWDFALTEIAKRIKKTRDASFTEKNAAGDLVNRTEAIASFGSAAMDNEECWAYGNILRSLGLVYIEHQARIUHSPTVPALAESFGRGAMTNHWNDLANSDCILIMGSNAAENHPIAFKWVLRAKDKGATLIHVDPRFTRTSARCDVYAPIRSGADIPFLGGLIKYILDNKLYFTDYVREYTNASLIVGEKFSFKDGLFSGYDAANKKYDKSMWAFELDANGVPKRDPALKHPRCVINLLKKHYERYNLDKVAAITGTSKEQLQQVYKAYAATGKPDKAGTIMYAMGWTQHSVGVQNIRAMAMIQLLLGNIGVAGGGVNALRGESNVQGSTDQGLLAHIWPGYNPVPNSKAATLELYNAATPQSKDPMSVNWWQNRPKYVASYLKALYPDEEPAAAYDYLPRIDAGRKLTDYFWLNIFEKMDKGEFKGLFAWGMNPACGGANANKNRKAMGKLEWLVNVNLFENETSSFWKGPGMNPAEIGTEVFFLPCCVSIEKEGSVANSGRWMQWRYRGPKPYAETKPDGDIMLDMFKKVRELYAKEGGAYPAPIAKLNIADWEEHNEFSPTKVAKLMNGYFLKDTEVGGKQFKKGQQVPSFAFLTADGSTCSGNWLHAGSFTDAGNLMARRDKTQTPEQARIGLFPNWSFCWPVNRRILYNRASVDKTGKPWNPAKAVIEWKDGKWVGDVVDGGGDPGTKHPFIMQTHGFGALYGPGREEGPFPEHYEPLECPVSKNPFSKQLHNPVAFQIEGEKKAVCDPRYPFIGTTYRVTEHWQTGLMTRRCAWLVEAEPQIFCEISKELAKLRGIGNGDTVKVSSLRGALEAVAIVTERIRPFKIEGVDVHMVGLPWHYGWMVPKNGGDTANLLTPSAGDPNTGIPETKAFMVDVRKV", "T2 sequence (Q72EJ0 1-236 partner)": "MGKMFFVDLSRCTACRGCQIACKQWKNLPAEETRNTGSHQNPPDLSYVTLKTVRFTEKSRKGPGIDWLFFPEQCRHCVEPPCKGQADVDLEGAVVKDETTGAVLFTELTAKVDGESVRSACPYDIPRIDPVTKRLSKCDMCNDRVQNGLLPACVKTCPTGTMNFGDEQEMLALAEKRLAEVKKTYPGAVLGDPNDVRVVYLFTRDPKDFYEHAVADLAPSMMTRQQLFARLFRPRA", "details": "cited from earlier work"}, "[4]": {"system": "Desulfovibrio vulgaris Hildenborough (DvH) Mo-FDH3, wild-type natively-purified (Mo-FDH3^WT)", "details": "pH 7.6, RT, 2 mM BV, 0.25 nM enzyme; Da Silva et al (2011); cited from earlier work"}, "[5]": {"details": "pH 7.6, RT, 2 mM BV, 1.4 nM enzyme, Oliveira et al (2020)"}}, "note": "Read-outs that look alike come from different tables or passages of the source.", "data": [{"smiles": "O=CO", "note": "[formate]", "values": [{"measurement": "kcat", "setting": "[1]; 2 mM BV (anaerobic), full progress curve global fit", "value": "47 ± 2", "unit": "s⁻¹"}, {"measurement": "kcat", "setting": "[1]; BV (2 mM), anaerobic, initial velocities, 3 replicates, pH 8.0, 25 °C", "value": "68 ± 5", "unit": "s⁻¹"}, {"measurement": "kcat", "setting": "[1]; BV (20 mM), anaerobic, initial velocities, 3 replicates, pH 8.0, 25 °C", "value": "111 ± 16", "unit": "s⁻¹"}, {"measurement": "Km", "setting": "[2]", "value": 51, "unit": "µM"}, {"measurement": "kcat", "setting": "[2]", "value": 174, "unit": "s⁻¹"}, {"measurement": "kcat", "setting": "[3]; pH 7.6, RT, 2 mM BV, 1.4 nM enzyme, Alvarez-Malmagro et al (2021)", "value": 1144, "unit": "s⁻¹"}, {"measurement": "kcat", "setting": "[3]; pH 7.6, RT, 2 mM BV, 1.4 nM enzyme, Miller et al (2018)", "value": 1100, "unit": "s⁻¹"}, {"measurement": "Km", "setting": "[3]; [5]", "value": "16.9 ± 2.8", "unit": "µM"}, {"measurement": "kcat", "setting": "[3]; [5]", "value": "1310 ± 50", "unit": "s⁻¹"}, {"measurement": "kcat", "setting": "[3]; pH 7.6, RT, 2 mM BV, 1.4 nM enzyme, Szczesny et al (2019)", "value": 940, "unit": "s⁻¹"}, {"measurement": "Km", "setting": "[3]; value reported by Oliveira et al., as cited in text, BV", "value": 17, "unit": "µM"}, {"measurement": "Km", "setting": "[4]", "value": 8, "unit": "µM"}, {"measurement": "kcat", "setting": "[4]", "value": 262, "unit": "s⁻¹"}]}]}
